Target: T1, Receptor-interacting serine/threonine-protein kinase 1 (Homo sapiens, UniProt Q13546)
T1 sequence (Q13546 whole entry): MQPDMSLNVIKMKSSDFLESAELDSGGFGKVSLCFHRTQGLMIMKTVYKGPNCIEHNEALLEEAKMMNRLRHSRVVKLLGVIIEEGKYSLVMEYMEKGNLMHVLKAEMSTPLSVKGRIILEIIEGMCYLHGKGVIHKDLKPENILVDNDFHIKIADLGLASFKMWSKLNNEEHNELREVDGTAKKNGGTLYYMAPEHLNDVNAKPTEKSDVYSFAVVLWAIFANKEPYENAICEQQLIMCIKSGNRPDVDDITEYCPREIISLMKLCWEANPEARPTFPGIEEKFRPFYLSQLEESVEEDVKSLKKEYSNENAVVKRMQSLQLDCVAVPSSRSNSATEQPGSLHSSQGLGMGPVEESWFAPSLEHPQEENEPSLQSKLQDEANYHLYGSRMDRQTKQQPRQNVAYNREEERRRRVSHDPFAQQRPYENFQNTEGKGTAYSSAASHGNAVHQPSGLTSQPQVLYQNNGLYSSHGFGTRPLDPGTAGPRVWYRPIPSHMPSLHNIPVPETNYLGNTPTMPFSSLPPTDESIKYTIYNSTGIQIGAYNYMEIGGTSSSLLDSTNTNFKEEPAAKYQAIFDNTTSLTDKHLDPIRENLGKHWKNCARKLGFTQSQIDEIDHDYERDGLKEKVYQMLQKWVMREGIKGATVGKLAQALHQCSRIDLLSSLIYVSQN
Assay: Adding 5 μl of ADP-Glo™ terminated the reaction.

Row | Structure (SMILES) | IC50 [nM]
1 | CN1C(=O)[C@@H](NC(=O)n2cc(Cc3ccccn3)cn2)COc2ccc(Br)cc21 | 65.2
2 | CN1C(=O)[C@@H](NC(=O)n2cc(Cc3cccc(F)n3)cn2)COc2ccc(Br)cc21 | 21.7
3 | CN1C(=O)[C@@H](NC(=O)n2cc(Cc3cccnn3)cn2)COc2ccc(Br)cc21 | 830
4 | CN1C(=O)[C@@H](NC(=O)n2cc(Cc3ccncc3)cn2)COc2ccc(Br)cc21 | 102
5 | CN1C(=O)[C@@H](NC(=O)n2cc(Cc3cccnc3)cn2)COc2ccc(Br)cc21 | 8.3
6 | CN1C(=O)[C@@H](NC(=O)n2cc(Cc3ccc(F)nc3)cn2)COc2ccc(Br)cc21 | 40.3
7 | CN1C(=O)[C@@H](NC(=O)n2cc(Cc3cccc(C(F)(F)F)n3)cn2)COc2ccc(Br)cc21 | 168
8 | Cc1cccc(Cc2cnn(C(=O)N[C@H]3COc4ccc(Br)cc4N(C)C3=O)c2)n1 | 104
